Measured values taken from patent US11492348B2, “Tri-substituted aryl and heteroaryl derivatives as modulators of PI3-kinase and autophagy pathways” (Neuropore Therapies, Inc., priority 2018, dated 2022).

What was measured:
PI3Kα = PI3Kα (Homo sapiens (Human), UniProt P42336); test: Inhibition of PI3Kα (ADP-Glo kinase activity assay, ATP to ADP conversion); assay type: biochemical; conditions: 25 μM PIP2:PS, 60 μM ATP, 30 min reaction, luminescence
Protocol: Quantification of ATP to ADP conversion as a measure of PI3Kα activity. Active PI3Kα (Life Technologies), in the presence or absence of PI3Kα inhibitor, was reacted with PIP2:PS (Life Technologies), a substrate specifically optimized for use with Class I PI3 kinases, and ultrapure ATP (Promega). The conversion of ATP to ADP by PI3Kα was measured as luminescence signal via Promega ADP-Glo kinase activity assay. Assay was validated using published PI3Kα inhibitors LY294002, PI-103, BYL719, GDC0198 and also DMSO vehicle control.
Compounds were prepared at 100× final concentration as a 12-point, 1:3 serial-dilution in DMSO series, with DMSO control as 12th point. Compound was then diluted in (25 mM HEPES pH 7.5, 1 mM EGTA, 0.3% CHAPS) prior to addition to PI3Kα. Active PI3Kα diluted to 0.24 ng/μL (1.1 nM) in (50 mM HEPES pH 7.5, 6 mM MgCl2, 1 mM EGTA, 200 mM NaCl, 0.03% CHAPS, 8 mM DTT) was incubated with compound for 0 hr and 3 hr prior to the start of the reaction. 25 μM PIP2:PS and 60 μM ATP were diluted from stock in (25 mM HEPES pH 7.5, 1 mM EGTA, 0.3% CHAPS) and added to initiate the PI3Kα reaction. Reaction time was 30 minutes. ATP to ADP conversion was measured in Luminescence Counts on DTX880 Plate Reader (Beckman Coulter). Compound IC50s were reported using GraphPad Prism software. Analytical method was non-linear regression, 4-parameter curve fit with bottom fit to validated PI3Kα inhibitor reference controls and no top fit (floating top).

[1] = system: (Ser-473) pAKT in B103 (Rat Neuroblastoma) cells; test: pAKT protocol: loss of (Ser-473) pAKT by AlphaScreen in insulin-stimulated B103 cells; assay type: cell-based; conditions: (Ser-473) pAKT/total AKT IC50, 2-hour pretreatment, 2.5 μg/mL insulin 20 minutes
Protocol: Inhibition of the PI3K-AKT-mTOR pathway was measured by quantifying the loss of (Ser-473) pAKT using AlphaScreen (Perkin Elmer). B103 (Rat Neuroblastoma) cells were seeded in serum containing medium (High Glucose DMEM (-Phenol Red)+10% FBS+2× Glutamax+1 mM Sodium Pyruvate+10 mM HEPES+1× Non-Essential Amino Acids+1× Pen/Strep) on a 96-well tissue culture treated plate and grown for 20 hours. Cells were then serum starved in serum free medium (High Glucose DMEM (-Phenol Red)+1× Glutamax+1 mM Sodium Pyruvate+1× Pen/Strep) for 6 hours prior to a 2-hour pretreatment with inhibitors of the pathway, including reference inhibitor LY294002. These inhibitors were prepared at a 200× final concentration as a 6-point, 1:3 serial dilution in DMSO series, with DMSO as the 7th point. The inhibitors were then diluted in experimental medium (High Glucose DMEM (-Phenol Red)+1× Glutamax+1 mM Sodium Pyruvate+1× Pen/Strep+25 mM HEPES+0.1% BSA) and combined with the cells at 1× final concentration in 0.5% DMSO. […] Cells were promptly lysed using Perkin Elmer proprietary lysis buffer and the (Ser-473) pAKT and total AKT contained in the lysate was measured by AlphaScreen. In AlphaScreen, donor beads were coated with streptavidin to capture one of the antibodies, which is biotinylated. Acceptor beads were coated with Protein A to immobilize the other antibody. In the presence of target protein, the two antibodies bring the donor and acceptor beads close together, generating signal. The amount of light emission is directly proportional to the amount of target protein present in the sample. For each inhibitor tested: the ratio of measured (Ser-473) pAKT/totalAKT was plotted in GraphPad Prism as a 7-point, non-linear regression, 4-parameter curve with bottom constrained to reference control bottom and unconstrained top anchored to DMSO.

PI3Kα, sequence (P42336 whole entry): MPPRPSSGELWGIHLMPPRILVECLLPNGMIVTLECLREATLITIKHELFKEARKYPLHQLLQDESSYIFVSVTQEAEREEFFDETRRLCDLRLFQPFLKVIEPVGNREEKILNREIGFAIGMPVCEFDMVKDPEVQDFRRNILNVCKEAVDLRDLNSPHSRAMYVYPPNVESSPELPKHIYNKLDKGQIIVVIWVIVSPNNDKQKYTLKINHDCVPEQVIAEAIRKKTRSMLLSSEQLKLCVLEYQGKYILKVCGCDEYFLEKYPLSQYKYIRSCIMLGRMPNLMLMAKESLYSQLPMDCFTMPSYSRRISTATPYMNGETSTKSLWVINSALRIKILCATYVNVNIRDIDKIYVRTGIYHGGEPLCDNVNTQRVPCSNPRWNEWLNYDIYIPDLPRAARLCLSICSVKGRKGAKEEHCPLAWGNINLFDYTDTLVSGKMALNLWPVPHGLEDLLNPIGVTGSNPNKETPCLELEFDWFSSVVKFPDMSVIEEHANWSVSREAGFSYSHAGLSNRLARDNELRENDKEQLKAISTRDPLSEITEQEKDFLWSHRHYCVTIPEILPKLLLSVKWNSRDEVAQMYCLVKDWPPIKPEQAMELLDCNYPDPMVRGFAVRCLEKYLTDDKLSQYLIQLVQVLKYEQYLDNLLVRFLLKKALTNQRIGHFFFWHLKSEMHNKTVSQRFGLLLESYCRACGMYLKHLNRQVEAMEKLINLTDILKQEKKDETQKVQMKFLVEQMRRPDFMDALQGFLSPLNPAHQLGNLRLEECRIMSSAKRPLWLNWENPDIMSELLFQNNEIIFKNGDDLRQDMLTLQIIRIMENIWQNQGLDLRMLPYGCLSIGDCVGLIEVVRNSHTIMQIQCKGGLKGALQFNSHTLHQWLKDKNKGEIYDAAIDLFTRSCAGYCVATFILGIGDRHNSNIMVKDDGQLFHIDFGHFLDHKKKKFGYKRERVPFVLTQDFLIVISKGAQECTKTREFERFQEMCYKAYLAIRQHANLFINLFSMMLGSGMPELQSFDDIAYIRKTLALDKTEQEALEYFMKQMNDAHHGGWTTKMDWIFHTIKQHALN
PI3Kα, sequence (P27986 whole entry partner): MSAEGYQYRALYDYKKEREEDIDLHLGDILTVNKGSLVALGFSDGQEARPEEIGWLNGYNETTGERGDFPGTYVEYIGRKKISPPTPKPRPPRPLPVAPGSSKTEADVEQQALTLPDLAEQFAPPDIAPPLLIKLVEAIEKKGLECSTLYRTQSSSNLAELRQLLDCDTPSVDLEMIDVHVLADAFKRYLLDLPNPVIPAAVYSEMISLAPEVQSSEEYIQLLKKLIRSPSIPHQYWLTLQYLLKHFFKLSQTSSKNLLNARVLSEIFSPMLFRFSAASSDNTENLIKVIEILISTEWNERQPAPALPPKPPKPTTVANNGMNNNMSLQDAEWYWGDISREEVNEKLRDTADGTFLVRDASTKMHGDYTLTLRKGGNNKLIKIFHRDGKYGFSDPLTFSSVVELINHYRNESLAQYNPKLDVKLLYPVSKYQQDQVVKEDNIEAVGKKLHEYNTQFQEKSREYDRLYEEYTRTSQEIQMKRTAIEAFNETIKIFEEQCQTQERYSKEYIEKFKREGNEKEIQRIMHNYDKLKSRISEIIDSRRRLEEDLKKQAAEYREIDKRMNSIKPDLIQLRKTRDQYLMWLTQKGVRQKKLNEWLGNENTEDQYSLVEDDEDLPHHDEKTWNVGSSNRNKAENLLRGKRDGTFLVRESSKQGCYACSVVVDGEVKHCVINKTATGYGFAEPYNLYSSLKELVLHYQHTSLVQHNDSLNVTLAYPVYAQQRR

Row | PI3Ka IC50 (PI3Kα) [µM] | IC50 [1] [µM] | SMILES
1 | 0.54 | 6.79 | O=C(C1CC1)N1CC(S(=O)(=O)c2cc(-c3cnc(NC4CC4)nc3)cc(N3CCOCC3)c2)C1 [Compound 102, cyclopropyl(3-((3-(2-(cyclopropylamino)pyrimidin-5-yl)-5-morpholinophenyl)sulfonyl)azetidin-1-yl)methanone]
2 | 0.062 | 26.4 | NC(=O)N1CC(S(=O)(=O)c2cc(-c3cnc(N)nc3)cc(N3CCOCC3)c2)C1 [Compound 81, 3-((3-(2-aminopyrimidin-5-yl)-5-morpholinophenyl)sulfonyl)azetidine-1-carboxamide]
3 | 0.88 | 13.8 | Nc1ncc(-c2cc(N3CCOCC3)nc(S(=O)(=O)c3ccccc3)c2)cn1 [Compound 118, 5-(2-morpholino-6-(phenylsulfonyl)pyridin-4-yl)pyrimidin-2-amine]
4 | 2.3 | 22.3 | Nc1ncc(-c2cc(N3CCOCC3)cc(S(=O)(=O)c3ccc4ccoc4c3)c2)cn1 [Compound 112, 5-(3-(benzofuran-6-ylsulfonyl)-5-morpholinophenyl)pyrimidin-2-amine]
5 | 0.68 | 5.81 | O=S(=O)(c1cc(-c2cnc(NC3CC3)nc2)cc(N2CCOCC2)c1)C1CCOC1 (stereo not shown) [Compound 103, N-cyclopropyl-5-(3-morpholino-5-((tetrahydrofuran-3-yl)sulfonyl)phenyl)pyrimidin-2-amine]
6 | 2.4 | 15.3 | Nc1ncc(-c2cc(N3CCOCC3)cc(S(=O)(=O)c3c[nH]c4ccccc34)c2)cn1 [Compound 114, 5-(3-((1H-indol-3-yl)sulfonyl)-5-morpholinophenyl)pyrimidin-2-amine]
7 | 1.1 | 14.3 | Nc1ncc(-c2cc(N3CCOCC3)cc(S(=O)(=O)/C=C/c3ccccc3O)c2)cn1 [Compound 113, (E)-2-(2-((3-(2-aminopyrimidin-5-yl)-5-morpholinophenyl)sulfonyl)vinyl)phenol]
8 | 0.88 | 8.53 | Nc1ccc(-c2cc(N3CCOCC3)cc(S(=O)(=O)[C@@H]3CCOC3)c2)cn1 [Compound 101, (R)-5-(3-morpholino-5-((tetrahydrofuran-3-yl)sulfonyl)phenyl)pyridin-2-amine]
9 | 0.12 | 5.19 | CN(C)C(=O)N1CC(S(=O)(=O)c2cc(-c3cnc(N)nc3)cc(N3CCOCC3)c2)C1 [Compound 95, 3-((3-(2-aminopyrimidin-5-yl)-5-morpholinophenyl)sulfonyl)-N,N-dimethylazetidine-1-carboxamide]
10 | 1.4 | 1.06 | Nc1ccc(-c2cc(N3CCOCC3)cc(S(=O)(=O)Cc3ccc(F)cc3F)c2)nn1 [Compound 96, 6-(3-((2,4-difluorobenzyl)sulfonyl)-5-morpholinophenyl)pyridazin-3-amine]
11 | 0.11 | 19.8 | COCNC(=O)N1CC(S(=O)(=O)c2cc(-c3cnc(N)nc3)cc(N3CCOCC3)c2)C1 [Compound 94, 3-((3-(2-aminopyrimidin-5-yl)-5-morpholinophenyl)sulfonyl)-N-(methoxymethyl)azetidine-1-carboxamide]
12 | 0.18 | 4.52 | Nc1ncc(-c2cc(N3CCOCC3)cc(S(=O)(=O)C3CN(C(=O)Cc4ccc(F)cc4)C3)c2)cn1 [Compound 78, 1-(3-((3-(2-aminopyrimidin-5-yl)-5-morpholinophenyl)sulfonyl)azetidin-1-yl)-2-(4-fluorophenyl)ethan-1-one]
13 | 0.29 | 10.8 | Nc1ncc(-c2cc(N3CCOCC3)cc(S(=O)(=O)CCc3ccc(F)cc3)c2)cn1 [Compound 82, 5-(3-((4-fluorophenethyl)sulfonyl)-5-morpholinophenyl)pyrimidin-2-amine]
14 | 0.12 | 0.89 | Nc1ncc(-c2cc(Cc3ccccc3)cc(N3CCOCC3)n2)cn1 [Compound 124, 5-(4-benzyl-6-morpholinopyridin-2-yl)pyrimidin-2-amine]
15 | 0.27 | 0.49 | C=C(c1ccccc1)c1cc(-c2cnc(N)nc2)nc(N2CCOCC2)c1 [Compound 126, 5-(6-morpholino-4-(1-phenylvinyl)pyridin-2-yl)pyrimidin-2-amine]
16 | 1.6 | 48.2 | Nc1ncc(-c2cc(N3CCOCC3)cc(S(=O)(=O)[C@@H]3CCOC3)c2)cc1C(F)(F)F [Compound 100, (R)-5-(3-morpholino-5-((tetrahydrofuran-3-yl)sulfonyl)phenyl)-3-(trifluoromethyl)pyridin-2-amine]
17 | 0.34 | 8.47 | CC(=O)N1CCC(S(=O)(=O)c2cc(-c3cnc(N)nc3)cc(N3CCOCC3)c2)CC1 [Compound 83, 1-(4-((3-(2-aminopyrimidin-5-yl)-5-morpholinophenyl)sulfonyl)piperidin-1-yl)ethan-1-one]
18 | 0.81 | 31.1 | Nc1ncc(-c2cc(N3CCOCC3)cc(S(=O)(=O)CC3CCCCC3)c2)cn1 [Compound 60, 5-(3-((cyclohexylmethyl)sulfonyl)-5-morpholinophenyl)pyrimidin-2-amine]
19 | 0.10 | 3.19 | Nc1ncc(-c2cc(N3CCOCC3)cc(S(=O)(=O)C3CN(C(=O)C4CC4)C3)c2)cn1 [Compound 77, (3-((3-(2-aminopyrimidin-5-yl)-5-morpholinophenyl)sulfonyl)azetidin-1-yl)(cyclopropyl)methanone]
20 | 0.25 | 6.4 | CCC(=O)N1CC(S(=O)(=O)c2cc(-c3cnc(N)nc3)cc(N3CCOCC3)c2)C1 [Compound 75, 1-(3-((3-(2-aminopyrimidin-5-yl)-5-morpholinophenyl)sulfonyl)azetidin-1-yl)propan-1-one]
21 | 0.49 | 31.1 | Nc1ncc(-c2cc(N3CCOCC3)cc(S(=O)(=O)C3CCCCC3)c2)cn1 [Compound 49, 5-(3-(cyclohexylsulfonyl)-5-morpholinophenyl)pyrimidin-2-amine]
22 | 0.15 | 2.91 | CC(C)(C)NC(=O)N1CC(S(=O)(=O)c2cc(-c3cnc(N)nc3)cc(N3CCOCC3)c2)C1 [Compound 92, 3-((3-(2-aminopyrimidin-5-yl)-5-morpholinophenyl)sulfonyl)-N-(tert-butyl)azetidine-1-carboxamide]
23 | 9.1 | 11.2 | Nc1cc(C(F)(F)F)c(-c2cc(N3CCOCC3)cc(S(=O)(=O)[C@@H]3CCOC3)c2)cn1 [Compound 71, (R)-5-(3-morpholino-5-((tetrahydrofuran-3-yl)sulfonyl)phenyl)-4-(trifluoromethyl)pyridin-2-amine]
24 | 0.69 | 4.72 | CNc1ccc(-c2cc(N3CCOCC3)cc(S(=O)(=O)[C@@H]3CCOC3)c2)cn1 [Compound 108, (R)-N-methyl-5-(3-morpholino-5-((tetrahydrofuran-3-yl)sulfonyl)phenyl)pyridin-2-amine]
25 | 0.21 | 5.02 | Nc1ncc(-c2cc(N3CCOCC3)cc(S(=O)(=O)C3CN(C(=O)c4ccc(F)cc4)C3)c2)cn1 [Compound 79, (3-((3-(2-aminopyrimidin-5-yl)-5-morpholinophenyl)sulfonyl)azetidin-1-yl)(4-fluorophenyl)methanone]
26 | 0.51 | 12.4 | Nc1ncc(-c2cc(N3CCOCC3)cc(S(=O)(=O)Cc3ccncc3)c2)cn1 [Compound 97, 5-(3-morpholino-5-((pyridin-4-ylmethyl)sulfonyl)phenyl)pyrimidin-2-amine]
